Biological target: IDO1 (Homo sapiens, UniProt P14902)
Assay: IDO1 Cellular Assay in HeLa Cells Stimulated with IFNγ
Type: cell-based
Conditions: IFNγ 100 ng/mL, 300 uM L-tryptophan, about 48 hours, fluorescence readout, read-out: IDO1 HELA Cell Assay, IC50

Chain of IDO1 (P14902 whole entry): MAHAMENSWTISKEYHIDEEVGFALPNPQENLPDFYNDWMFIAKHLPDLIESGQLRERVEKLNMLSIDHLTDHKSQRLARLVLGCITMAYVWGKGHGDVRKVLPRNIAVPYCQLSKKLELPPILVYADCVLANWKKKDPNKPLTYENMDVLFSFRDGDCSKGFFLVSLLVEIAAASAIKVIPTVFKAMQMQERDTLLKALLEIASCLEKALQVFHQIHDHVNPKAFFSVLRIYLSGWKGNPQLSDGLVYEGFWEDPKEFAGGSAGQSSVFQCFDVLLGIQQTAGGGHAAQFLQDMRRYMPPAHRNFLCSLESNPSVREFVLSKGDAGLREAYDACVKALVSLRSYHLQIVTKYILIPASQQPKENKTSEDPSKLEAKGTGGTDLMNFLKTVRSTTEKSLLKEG

| SMILES | IC50 [nM] |
| --- | --- |
| Cc1ccc(F)cc1C1CCN(C(=O)Cn2nc(C(=O)N3C[C@@H](C)O[C@@H](C)C3)c3c2CCC3)CC1 [Example 98, 2-{3-[(2R,6S)-2,6-dimethylmorpholine-4-carbonyl]-5,6-dihydrocyclopenta[c]pyrazol-1(4H)-yl}-1-[4-(5-fluoro-2-methylphenyl)piperidin-1-yl]ethan-1-one] | 27.1 |
| Cc1cc(C2CCN(C(=O)Cn3nc(C(=O)N4C[C@@H](C)O[C@@H](C)C4)c4c3CCC4)CC2)cc(C)c1Cl [Example 116, 1-[4-(4-chloro-3,5-dimethylphenyl)piperidin-1-yl]-2-{3-[(2R,6S)-2,6-dimethylmorpholine-4-carbonyl]-5,6-dihydrocyclopenta[c]pyrazol-1(4H)-yl}ethan-1-one] | 48.6 |
| Cc1cc(F)ccc1C1CCN(C(=O)Cn2nc(C(=O)N3CC[C@H](O)[C@H](F)C3)c3c2CCC3)CC1 [Example 56, 1-(4-(4-fluoro-2-methylphenyl)piperidin-1-yl)-2-(3-((3R,4S)-3-fluoro-4-hydroxypiperidine-1-carbonyl)-5,6-dihydrocyclopenta[c]pyrazol-1(4H)-yl)ethanone] | 199 |
| C[C@@H]1CN(C(=O)c2nn(CC(=O)N3CCC(c4ccccc4C4CC4)CC3)c3c2CCC3)C[C@H](C)O1 [Example 113, 1-[4-(2-cyclopropylphenyl)piperidin-1-yl]-2-{3-[(2R,6S)-2,6-dimethylmorpholine-4-carbonyl]-5,6-dihydrocyclopenta[c]pyrazol-1(4H)-yl}ethan-1-one] | 42.6 |
| C[C@@H]1CN(C(=O)c2nn(CC(=O)N3CCC(c4ccc(Cl)c(Cl)c4)CC3)c3c2CCC3)C[C@H](C)O1 [Example 123, 1-[4-(3,4-dichlorophenyl)piperidin-1-yl]-2-{3-[(2R,6S)-2,6-dimethylmorpholine-4-carbonyl]-5,6-dihydrocyclopenta[c]pyrazol-1(4H)-yl}ethan-1-one] | 54.5 |
| Cc1cccc(C2(F)CCN(C(=O)Cn3nc(C(=O)N4CCC(O)CC4)c4c3C[C@H]3C[C@@H]43)CC2)c1C [Example 10, 1-(4-(2,3-dimethylphenyl)-4-fluoropiperidin-1-yl)-2-((3bR,4aR)-3-(4-hydroxypiperidine-1-carbonyl)-3b,4,4a,5-tetrahydro-1H-cyclopropa[3,4]cyclopenta[1,2-c]pyrazol-1-yl)ethanone] | 3.4 |
| C[C@@H]1CN(C(=O)c2nn(CC(=O)N3CCC(c4ccccc4Cl)CC3)c3c2CCC3)C[C@H](C)O1 [Example 157, 1-[4-(2-chlorophenyl)piperidin-1-yl]-2-{3-[(2R,6S)-2,6-dimethylmorpholine-4-carbonyl]-5,6-dihydrocyclopenta[c]pyrazol-1(4H)-yl}ethan-1-one] | 150 |
| CCc1cccc(C2CCN(C(=O)Cn3nc(C(=O)N4C[C@@H](C)O[C@@H](C)C4)c4c3CCC4)CC2)c1 [Example 96, 2-{3-[(2R,6S)-2,6-dimethylmorpholine-4-carbonyl]-5,6-dihydrocyclopenta[c]pyrazol-1(4H)-yl}-1-[4-(3-ethylphenyl)piperidin-1-yl]ethan-1-one] | 21.5 |
| Cc1cccc(C2CCN(C(=O)Cn3nc(C(=O)N4CC(C)(O)C4)c4c3CCC4)CC2)c1C [Example 50, 1-(4-(2,3-dimethylphenyl)piperidin-1-yl)-2-(3-(3-hydroxy-3-methylazetidine-1-carbonyl)-5,6-dihydrocyclopenta[c]pyrazol-1(4H)-yl)ethan-1-one] | 40.1 |
| C[C@@H]1CN(C(=O)c2nn(CC(=O)N3CCC(c4cccc(F)c4F)CC3)c3c2CCC3)C[C@H](C)O1 [Example 121, 1-[4-(2,3-difluorophenyl)piperidin-1-yl]-2-{3-[(2R,6S)-2,6-dimethylmorpholine-4-carbonyl]-5,6-dihydrocyclopenta[c]pyrazol-1(4H)-yl}ethan-1-one] | 53.2 |
| Cc1cc(C2CCN(C(=O)Cn3nc(C(=O)N4C[C@@H](C)O[C@@H](C)C4)c4c3CCC4)CC2)cc(C)c1F [Example 139, 2-{3-[(2R,6S)-2,6-dimethylmorpholine-4-carbonyl]-5,6-dihydrocyclopenta[c]pyrazol-1(4H)-yl}-1-[4-(4-fluoro-3,5-dimethylphenyl)piperidin-1-yl] ethan-1-one] | 88.3 |
| C[C@@H]1CN(C(=O)c2nn(CC(=O)N3CCC(c4cc(F)cc(F)c4)CC3)c3c2CCC3)C[C@H](C)O1 [Example 67, 1-[4-(3,5-difluorophenyl)piperidin-1-yl]-2-{3-[(2R,6S)-2,6-dimethylmorpholine-4-carbonyl]-5,6-dihydrocyclopenta[c]pyrazol-1(4H)-yl}ethan-1-one] | 52.4 |
| Cc1cccc(C2CCN(C(=O)Cn3nc(C(=O)N4CCN(C(=O)CO)CC4)c4c3C[C@@H]3C[C@H]43)CC2)c1C [Example 28, 1-[4-(2,3-dimethylphenyl)piperidin-1-yl]-2-{(3bS,4aS)-3-[4-(hydroxyacetyl)piperazine-1-carbonyl]-3b,4,4a,5-tetrahydro-1H-cyclopropa[3,4]cyclopenta[1,2-c]pyrazol-1-yl}ethan-1-one] | 41.2 |
| C[C@@H]1CN(C(=O)c2nn(CC(=O)N3CCC(c4cccc(C5CC5)c4)CC3)c3c2CCC3)C[C@H](C)O1 [Example 103, 1-[4-(3-cyclopropylphenyl)piperidin-1-yl]-2-{3-[(2R,6S)-2,6-dimethylmorpholine-4-carbonyl]-5,6-dihydrocyclopenta[c]pyrazol-1(4H)-yl}ethan-1-one] | 29.6 |
| Cc1c(C2CCN(C(=O)Cn3nc(C(=O)N4CCN(CC(N)=O)CC4)c4c3C[C@H]3C[C@@H]43)CC2)cccc1C(F)(F)F [Example 6, 2-(4-((3bR,4aR)-1-(2-(4-(2-methyl-3-(trifluoromethyl)phenyl)piperidin-1-yl)-2-oxoethyl)-3b,4,4a,5-tetrahydro-1H-cyclopropa[3,4]cyclopenta[1,2-c]pyrazole-3-carbonyl)piperazin-1-yl)acetamide] | 2.5 |
| C[C@@H]1CN(C(=O)c2nn(CC(=O)N3CCC(c4ccc(Cl)c(F)c4)CC3)c3c2CCC3)C[C@H](C)O1 [Example 112, 1-[4-(4-chloro-3-fluorophenyl)piperidin-1-yl]-2-{3-[(2R,6S)-2,6-dimethylmorpholine-4-carbonyl]-5,6-dihydrocyclopenta[c]pyrazol-1(4H)-yl}ethan-1-one] | 40.6 |
| C[C@@H]1CN(C(=O)c2nn(CC(=O)N3CCC(F)(c4ccccc4)CC3)c3c2CCC3)C[C@H](C)O1 [Example 63, 2-[3-[(2R,6S)-2,6-dimethylmorpholine-4-carbonyl]-5,6-dihydro-4H-cyclopenta[c]pyrazol-1-yl]-1-(4-fluoro-4-phenyl-1-piperidyl)ethanone] | 296 |
| C[C@@H]1CN(C(=O)c2nn(CC(=O)N3CCC(C)(c4ccccc4)CC3)c3c2CCC3)C[C@H](C)O1 [Example 66, 2-{3-[(2R,6S)-2,6-dimethylmorpholine-4-carbonyl]-5,6-dihydrocyclopenta[c]pyrazol-1(4H)-yl}-1-(4-methyl-4-phenylpiperidin-1-yl)ethan-1-one] | 43.5 |
| Cc1cc(C)cc(C2CCN(C(=O)Cn3nc(C(=O)N4C[C@@H](C)O[C@@H](C)C4)c4c3CCC4)CC2)c1 [Example 155, 2-{3-[(2R,6S)-2,6-dimethylmorpholine-4-carbonyl]-5,6-dihydrocyclopenta[c]pyrazol-1(4H)-yl}-1-[4-(3,5-dimethylphenyl)piperidin-1-yl]ethan-1-one] | 143 |
| C[C@@H]1CN(C(=O)c2nn(CC(=O)N3CCC(c4ccccc4F)CC3)c3c2CCC3)C[C@H](C)O1 [Example 145, 2-{3-[(2R,6S)-2,6-dimethylmorpholine-4-carbonyl]-5,6-dihydrocyclopenta[c]pyrazol-1(4H)-yl}-1-[4-(2-fluorophenyl)piperidin-1-yl]ethan-1-one] | 106 |
| C[C@@H]1CN(C(=O)c2nn(CC(=O)N3CCC(c4cccc(F)c4Cl)CC3)c3c2CCC3)C[C@H](C)O1 [Example 97, 1-[4-(2-chloro-3-fluorophenyl)piperidin-1-yl]-2-{3-[(2R,6S)-2,6-dimethylmorpholine-4-carbonyl]-5,6-dihydrocyclopenta[c]pyrazol-1(4H)-yl}ethan-1-one] | 24.1 |
| Cc1c(C2CCN(C(=O)Cn3nc(C(=O)N4CCC(O)(CF)CC4)c4c3C[C@H]3C[C@@H]43)CC2)cccc1C(F)(F)F [Example 1, 2-((3bR,4aR)-3-(4-(fluoromethyl)-4-hydroxypiperidine-1-carbonyl)-3b,4,4a,5-tetrahydro-1H-cyclopropa[3,4]cyclopenta[1,2-c]pyrazol-1-yl)-1-(4-(2-methyl-3-(trifluoromethyl)phenyl)piperidin-1-yl)ethanone] | 0.8 |
| COc1ccc(C2CCN(C(=O)Cn3nc(C(=O)N4C[C@@H](C)O[C@@H](C)C4)c4c3CCC4)CC2)c(F)c1 [Example 137, 2-{3-[(2R,6S)-2,6-dimethylmorpholine-4-carbonyl]-5,6-dihydrocyclopenta[c]pyrazol-1(4H)-yl}-1-[4-(2-fluoro-4-methoxyphenyl)piperidin-1-yl] ethan-1-one] | 85 |
| C[C@@H]1CN(C(=O)c2nn(CC(=O)N3CCC(c4cccc(F)c4)CC3)c3c2CCC3)C[C@H](C)O1 [Example 130, 2-{3-[(2R,6S)-2,6-dimethylmorpholine-4-carbonyl]-5,6-dihydrocyclopenta[c]pyrazol-1(4H)-yl}-1-[4-(3-fluorophenyl)piperidin-1-yl]ethan-1-one] | 66.1 |
| Cc1c(C2CCN(C(=O)Cn3nc(C(=O)N4CCO[C@H](CO)C4)c4c3C[C@H]3C[C@@H]43)CC2)cccc1C(F)(F)F [Example 4, 2-((3bR,4aR)-3-((S)-2-(hydroxymethyl)morpholine-4-carbonyl)-3b,4,4a,5-tetrahydro-1H-cyclopropa[3,4]cyclopenta[1,2-c]pyrazol-1-yl)-1-(4-(2-methyl-3-(trifluoromethyl)phenyl)piperidin-1-yl)ethanone] | 3 |
| C[C@@H]1CN(C(=O)c2nn(CC(=O)N3CCC(c4cc(F)c(Cl)c(F)c4)CC3)c3c2CCC3)C[C@H](C)O1 [Example 101, 1-[4-(4-chloro-3,5-difluorophenyl)piperidin-1-yl]-2-{3-[(2R,6S)-2,6-dimethylmorpholine-4-carbonyl]-5,6-dihydrocyclopenta[c]pyrazol-1(4H)-yl}ethan-1-one] | 27.9 |
